The values below come from a melting point compilation (Tetko et al.; mined from patent text by program, amines drawn as free bases though some values may be those of a salt).

Molecules are shown by their SMILES.

Usually melting point stands for the temperature of the solid-liquid transition.

With `CC(C)(C)C(=O)CC(=O)Nc1cc(OC(=O)c2cc(C(C)(C)C)c(O)c(C(C)(C)C)c2)ccc1Cl`, the melting point was 145 to 147 °C.
In turn, `C=C(C)CN(c1ncnc2c1ncn2C1OC(CO)C(O)C1O)C1CCCCC1` (configuration not stated) gave a melting point of 110 to 112 °C.
The compound `COC(=O)CCCC=C(c1cc(C)c2oc(=O)n(C)c2c1)c1cc(C)c2oc(=O)n(C)c2c1` yielded a melting point of 164 to 165 °C.
`CCOC(=O)c1c(-c2ccccc2Cl)c2cc(C(C)C)ccc2n(C)c1=O` had a melting point of 140 to 142 °C.
As to `C=CCOc1ccc(C)c2c1C(=O)CC2`, the melting point lay in the range of 89 to 92 °C.
Next, `CC(Oc1ncn(-c2cccc(C(F)(F)F)c2)n1)C(N)=O` (configuration not stated): 147 to 149 °C; `CCc1c(C(=O)c2cc(C)cc(C)c2)n(CC=C(C)C)c(=O)[nH]c1=O`: 255 to 260 °C; `CCCc1c2c(cc3c(=O)cc(C(=O)O)oc13)CCCC2`: 235 °C.
Next, `CCCc1nc(NC2CC2)nc(N2CCOCC2)n1`: 104 °C; `CN1C(=O)C(CN2CCCCC2)CC1C1CC1c1ccccc1Cl` (configuration not stated): 87 to 90 °C; `CCC(=O)Nc1cccc(C)c1C(=O)O`: 152 °C.
The compound `CNc1nc(C)c(-c2cn3ccccc3n2)s1` returned a melting point of 228 to 229 °C.
Compound `CCC(CC)Nc1cc(C(=O)O)ccc1N1C(=O)CCC1(CO)CCO` (configuration not stated) returned a melting point of 188 to 190 °C.
For the compound `CCCCCN(C(=O)c1cnc(N2CC(C)(C)NC2=O)nc1N)c1cccc(C(F)(F)F)c1`, the melting point is 167 to 168 °C.
Regarding `CCCCCCCCCCCC(=O)c1ccc2c(Cl)cccc2c1O`, the melting point is 86 to 87 °C.
In turn, `CCC(O)c1c(S(N)(=O)=O)nn(C)c1C(C)(C)C` (configuration not stated) registered a melting point of 113 to 115 °C.
For `Cc1ccc(C2=C(c3ccc(S(C)(=O)=O)cc3)CCC2)cc1`, the melting point is 118 °C.
`O=C(Nc1ccc(Cl)cn1)c1cc(Cl)ccc1NCC1CCN(C2CCOCC2)CC1` registered a melting point of 192 to 194 °C.
`CCC(Oc1c(Br)cccc1Br)C(=O)OC1CC(O)C=C2C=CC(C)C(CCC3CC(O)CC(=O)O3)C21` (mixture of isomers): the melting point fell in the range of 114 to 116 °C.
For `Nc1ccc(Oc2c(NCc3ccco3)cc(C(=O)O)cc2S(N)(=O)=O)cc1` the value was 233 to 235 °C.
Turning to `CC(C)(C)OC(=O)Oc1cc2c(s1)CCN(C(C(=O)C1CC1)c1ccccc1F)C2` (configuration not stated), the melting point lay within 98 to 99 °C.
`COc1ccc(N2CCN(c3c(C)c(C)c4c(c3C)CC(C)O4)CC2)cc1C` (configuration not stated): the melting point fell in the range of 141 to 142 °C.
For the compound `CC1CCCC(C)N1c1cc(F)cc(C(=O)Nc2ccc(OCCN3CCOCC3)c3ccccc23)c1` (configuration not stated), the melting point was in the range of 105 to 107 °C.
Next, `C[C@@H](NC(=O)c1ccc(-c2csnn2)cc1)[C@](O)(Cn1cncn1)c1ccc(F)cc1F`: 196 to 198 °C.
Next, `COC(=O)CCC(=O)c1ccc(NC(=O)C(C)C)c(N)c1`: 178 °C; `Cc1cc(C(=O)C(C)N2CCC(O)(c3ccccc3)CC2)ccc1OCc1ccccc1` (configuration not stated): 98 to 99 °C; `O=C1c2cccc3cc4ccccc4c(c23)C(=O)N1CCNCCCNCCN1C(=O)c2cccc3cc4ccccc4c(c23)C1=O`: 191 °C.
Consider `O=C(O)CCCCC[C@@H]1C[C@@H](NS(=O)(=O)c2ccc(Cl)cc2)CN1S(=O)(=O)c1ccc(Cl)cc1`, for which the melting point fell in the range of 124 to 125 °C.
Compound `O=C(Nc1ccc2c(c1)C(O)CC2)C(F)(F)F` (configuration not stated) had a melting point of 123 to 124 °C.
For `CCCn1nnn(-c2cc(OC3CCCO3)c(Cl)cc2Cl)c1=O` (configuration not stated) the value was 89 to 90 °C.
Regarding `Cn1c(C(F)(F)F)ccc(-c2c(F)cc(Cl)c3occc23)c1=O`, the melting point is 178 to 179 °C.
Next, `O=Cc1cnn(-c2ccc(C(F)(F)F)cc2[N+](=O)[O-])c1Br`: 195 to 198 °C; `c1cc2c3c(c1)nc(N1CCC(c4c[nH]cn4)CC1)n3CCC2`: 250 to 255 °C; `Cc1ccccc1P1(=O)c2ccccc2CN1c1ccccc1` (configuration not stated): 181 to 183 °C.
Compound `CSc1nc2cc(-c3cccnc3)cc(N)n2n1` came in with a melting point of 161 to 163 °C.
For `Nc1ccc(NC=C(S(=O)(=O)c2ccccc2)S(=O)(=O)c2ccccc2)nc1` the value was 172 to 174 °C; for `COC(=O)Cc1nc(-c2ccc(OC)c(OC)c2)c2cc(OC)c(OC)cc2n1`, 152 to 153 °C; for `CC(CCl)n1c(C(F)(F)F)nc2cc(F)c(-n3c(=O)cc(C(F)(F)F)n(C)c3=O)cc21` (configuration not stated), 93 to 95 °C.
For `CCCCC(Sc1cc(C(C)(C)C)c(O)c(C(C)(C)C)c1)C(=O)O` (configuration not stated), the melting point is 140 to 142 °C.
`Nc1ncnc2c1c(Br)cn2COCCO` came in with a melting point of 163 to 164 °C.
As for `COc1c2nc(CCl)n(C)c(=O)c2c(OC)c2nc(CCl)n(C)c(=O)c12`, the melting point lay within 273 to 274 °C.
Compound `COc1ccc(-c2csc(Nc3ccc(C)cn3)n2)c(OC)c1` displayed a melting point of 157 to 158 °C.
As to `COC(=O)CCON1C(C)(C)CC(OCc2ccc(COC3CC(C)(C)N(OCCC(=O)OC)C(C)(C)C3)cc2)CC1(C)C`, the melting point lay within 84 to 85 °C.
`C=CCc1c(-c2ccc(C#N)cc2)[nH]c2cc(C#N)ccc12`: the melting point was 217 to 221 °C.
On to `c1cc(Nc2nccc(-c3ccco3)n2)cc(-n2ccnc2)c1`, for which the melting point lay within 175 to 178 °C.
`O=C(C(=O)N1CCC(Oc2ccc(F)cc2)CC1)c1c[nH]c2ccccc12` returned a melting point of 205 to 207 °C.
For the compound `CCN1CC(=O)N(CCc2ccccc2)C1=S`, the melting point is 66 to 68 °C.
Next, `CCn1nc(C)c2c1C1=NCCN1C(C)=N2`: 168 to 170 °C; `OCCNc1ccnc2cc3c(cc12)OCO3`: 233 to 234 °C; `COC(=O)c1ccc(C2=NC(C)(C)Cc3cc(OC)c4c(c32)CC(C)(C)O4)cc1NC(=O)C(F)(F)F`: 146 to 147 °C.
For `CCCCCCCCCCCCCCCc1c([N+](=O)[O-])cc([N+](=O)[O-])c(OC)c1C(=O)O` the value was 68 to 75 °C.
In the case of `CCn1cc(C(=O)O)c(=O)c2cc(F)c(N3CC(CNC)C3)nc21`, the melting point was 180 to 182 °C.
Compound `O=[N+]([O-])c1cn2c(n1)O[C@@H](COc1ccc(N3CCN(S(=O)(=O)C(F)(F)C(F)(F)C(F)(F)C(F)(F)F)CC3)cc1)CC2` gave a melting point of 235 to 236 °C.
For `Cc1oc(-c2ccccc2)nc1COc1ccc(CON=C(CCC(=O)O)c2ccncc2)cc1` the value was 161 to 162 °C; for `O=[N+]([O-])c1cc([N+](=O)[O-])c2ccccc2c1Nc1ccc(OC(F)(F)F)c(Cl)c1`, 140 °C.
As to `CN1C(=O)c2cc(N/C(=C3\C(=O)Nc4ccc([N+](=O)[O-])cc43)c3ccccc3)ccc2C(C)(C)C1=O`, the melting point fell in the range of 169 to 171 °C.
For `O=C(NC(=S)N1CCN(c2nc3cccccc-3n2)CC1)c1ccccc1`, the melting point lay in the range of 182 to 185 °C.
The compound `CCOP(=O)(Cc1c2ccccc2cc2ccccc12)OCC` came in with a melting point of 104 °C.
On to `COc1cc2c3ccc(OC)c(OC)c3n(CCCc3ccccc3)c2cc1OC`, for which the melting point fell in the range of 116 to 118 °C.
Next, `N#Cc1ccc(-c2ccc3c(c2)CCc2nn(-c4ccccn4)c(O)c2-3)cc1`: 274 to 275 °C; `COCC1CN(c2ccc3cc(OCCS(C)=O)ccc3c2)C(=O)O1` (configuration not stated): 133 to 141 °C; `O=c1[nH]c(=O)n([C@@H]2CO[C@@H](CO)O2)cc1/C=C/Br`: 75 to 78 °C.
As for `O=C1OCCC12Sc1cc(NO)ccc1C2=O` (configuration not stated), the melting point lay within 184 to 186 °C.
As to `CCCOCCOc1ccc(-c2ccc3c(c2)C=C(C(=O)Nc2ccc(CN(C)C4CCOCC4)cc2)CCS3(=O)=O)c(C)c1C`, the melting point is 158 to 159 °C.
The compound `CC(C)C(C(=O)O)N(C)C(=O)OC(C)(C)C` (configuration not stated) came in with a melting point of 83 to 85 °C.
For `O=C(Nc1ccc(N2CCSCC2)c(F)c1)OCc1ccccc1` the value was 142 °C.
Consider `Cc1cc(C)n(-c2nc(NC3Cc4ccccc4C3)cc(N3CCOCC3)n2)n1`, for which the melting point lay in the range of 66 to 70 °C.
Consider `CCCOc1c(C=NO)c(=O)n(C)c(=O)n1C`, for which the melting point was in the range of 119 to 120 °C.
For `Oc1ncnc2nc(-c3cccc(Cl)c3)cnc12` the value was more than 315 °C; for `Cc1c(C#N)ccc(N)c1C#N`, 209 to 210 °C.
On to `CCCCCc1cccc2c1C(=O)N(OC1C(CO)OC(n3cnc4c(N)ncnc43)C1O)C2=O` (configuration not stated), for which the melting point lay in the range of 159 to 160 °C.
Regarding `OCC1Cc2c(c(Br)cc3c(-c4ccccc4)noc23)O1` (configuration not stated), the melting point lay in the range of 164 to 166 °C.
Regarding `O=C(NC(=O)c1c(F)cccc1F)Nc1ccc(SC(F)(F)C(F)Cl)cc1F` (configuration not stated), the melting point lay in the range of 172 to 173 °C.
`CCOc1nc2c(Cl)cccc2s1` returned a melting point of 43 to 45 °C.
Next, `Cc1cc2c(nc1C(O)c1cccs1)CCCCC2` (configuration not stated): 102 to 104 °C; `COc1ccc(-c2ccc(OC)nn2)c(OCC(O)CNC(C)(C)C)c1` (configuration not stated): 114 to 116 °C.
In turn, `CCC1(c2cccs2)OCC(=O)Nc2ccc(-c3csc(C#N)c3)cc21` (configuration not stated) displayed a melting point of 202 to 204 °C.
`COc1ccc(S(=O)(=O)Nc2c(C#N)cc(C)cc2C(=O)O)cc1` returned a melting point of 162 °C.
In turn, `CCOC(=O)C(Cl)=Cc1cc(N(C(N)=S)c2cscc2C(=O)OC)ccc1Cl` gave a melting point of 158 to 160 °C.
With `COc1cc2c(c(Cl)c1Cl)C(=O)C(C(C)C)C2` (configuration not stated), the melting point fell in the range of 118 to 119 °C.
Next, `COCc1nc(Cl)c(Oc2cc(OC)ccc2Cl)c(Cl)n1`: 105 °C.
`CSC1C(=O)Nc2cccc([N+](=O)[O-])c21` (configuration not stated) showed a melting point of 228 to 230 °C.
`Fc1cc2c(cc1F)CC(n1c(-c3nnn[nH]3)c[nH]c1=S)C2` displayed a melting point of 142 to 147 °C.
On to `Nc1cc2nc(N)c(-c3ccccc3Cl)cc2cn1`, for which the melting point turned out to be 175 °C.
Turning to `COc1ccc(-c2nc(CN(C)c3ccccc3)nc3cc(OC)c(OC)cc23)cc1OC`, the melting point was in the range of 141 to 143 °C.
In the case of `CCC1(CC)CN(C2CC3(C)C(CCC4C5CCC(C(C)=O)C5(C)CC(=O)C43)CC2O)CCO1` (configuration not stated), the melting point lay in the range of 177 to 179 °C.
For `COc1cc(C=O)ccc1OCc1nc(-c2cccc(C#N)c2)oc1C`, the melting point was in the range of 166 to 167 °C.
